Assay results as given in publication PMC9959130, “Effects of Side Chain and Peptide Bond Modifications on the Targeting Properties of Stabilized Minigastrin Analogs” (Pharmaceuticals, 2023).
Where two headings read alike, the source gives them in different places. Where a SMILES comes first, the peptide text is derived from it. [ ]: non-standard residue; d: D form. The star is where a group is joined. DOTA = O=C(O)CN1CCN(CC(=O)O)CCN(CC(=O)*)CCN(CC(=O)O)CC1; 1Nal = N[C@@H](Cc1cccc2ccccc12)C(=O)O; NMeNle = CCCC[C@H](NC)C(=O)O

Legend:
human CCK2R [1] = target: T1, human CCK2R (Homo sapiens, UniProt P32239); test: Competitive binding assay against [125I][3-iodo-Tyr12,Leu15]gastrin-I on A431-CCK2R cells; conditions: unlabeled peptide, 1 h at RT, radioligand [125I][3-iodo-Tyr12,Leu15]gastrin-I, mean ± sd of three independent experiments in triplicates
T1 construct: expressed in transfected cells; host or cells: A431 human epidermoid carcinoma cells, stably transfected (A431-CCK2R); originally provided by Dr. Luigi Aloj
T1 sequence (P32239 1-447): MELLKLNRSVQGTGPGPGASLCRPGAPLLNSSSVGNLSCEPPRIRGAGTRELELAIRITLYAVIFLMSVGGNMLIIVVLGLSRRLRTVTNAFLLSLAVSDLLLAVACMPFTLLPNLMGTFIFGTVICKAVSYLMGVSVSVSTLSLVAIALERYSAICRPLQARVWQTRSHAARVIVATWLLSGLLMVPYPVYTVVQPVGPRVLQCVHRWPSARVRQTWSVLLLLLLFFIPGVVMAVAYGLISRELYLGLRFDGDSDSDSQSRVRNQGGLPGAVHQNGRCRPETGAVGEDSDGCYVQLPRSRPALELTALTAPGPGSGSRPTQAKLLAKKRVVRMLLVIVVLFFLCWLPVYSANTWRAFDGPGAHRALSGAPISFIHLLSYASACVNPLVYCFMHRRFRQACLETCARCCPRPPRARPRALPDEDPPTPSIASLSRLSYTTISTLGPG
Excerpt: (§1) A431 human epidermoid carcinoma cells overexpressing human CCK2R through stable transfection (A431-CCK2R) and the same cell line transfected with the empty vector (A431-mock) were used for cell assays. The cells are constantly available in our laboratory and were originally provided by Dr. Luigi Aloj. All cell culture media and reagents were obtained from Invitrogen Corporation (Lofer, Austria) or Sigma-Aldrich (Darmstadt, Germany). Dulbecco’s modified Eagle’s medium (DMEM) supplemented with 10% (v/v) fetal bovine serum and 1% of 100x penicillin−streptomycin−glutamine was used for cell culture. The cells were passaged three times per week using a 10x 2.5% trypsin-EDTA solution in a 1:2–1:3 ratio.
Receptor affinity studies of the DOTA-conjugates for the CCK2R was competitively evaluated against [^125I][3-iodo-Tyr^12,Leu^15]gastrin-I. The binding assays were performed in 96-well filter plates (MultiScreenHTS-FB, Merck Group, Darmstadt, Germany) as previously described. A431-CCK2R cells (200,000–400,000/well) were incubated for 1 h at RT with the peptides (concentration range of 0.01–1000 nM) and [^125I][3-iodo-Tyr^12,Leu^15]gastrin-I (~25,000 cpm). The incubation was arrested by filtering the medium by vacuum and rinsing twice rapidly with ice-cold binding assay buffer (10 mM TRIS/139 mM NaCl, pH 7.3). The filters were removed from the plate, transferred into 4.5 mL tubes and measured in the γ-counter. Data were normalized from 0 to 100 for graphical representation of exemplary binding curves. Origin software (Microcal Origin 6.1, Northampton, MA, USA) was used to calculate the half maximal inhibitory concentration (IC50) values by nonlinear regression and expressed as mean ± sd for three independent experiments performed in triplicates. An additional cell uptake study at 2 h after incubation was performed for DOTA-[(N-Me)1Nal^8]MGS5 radiolabeled with gallium-68 and lutetium-177 (see Figure S4 of the Supplementary Materials).

human CCK2R [2] = target: T1, human CCK2R; test: Calcium mobilization assay (fluo-4 AM) on A431-CCK2R cells; format: cell-based; conditions: normalized to 10^−6 M pentagastrin, mean ± SEM of at least three independent experiments in triplicates
Excerpt: as §1
Analog-induced receptor activation was evaluated by a calcium mobilization assay using the calcium-sensitive dye fluo-4 AM (ThermoFisher Scientific, Montigny-Le-Bretonneux, France), as previously described. Briefly, A431-CCK2R cells were seeded (60,000/well) in flat clear bottom black 96-well plates (Corning, Bagneaux-sur-Loing, France) coated with poly-L-ornithine (100 µg/mL, 1 h, 37 °C) (Sigma Aldrich, Saint Quentin Fallavier, France). Cytosolic Ca^2+ variations were measured before and after application of 50 µL of graded concentrations of the investigated peptides in the vicinity of the cells, and the effects on Ca^2+ mobilization were measured. Data were background corrected and normalized for the amplitudes caused by the medium alone (0%, no self-effect) or 10^−6 M pentagastrin (100%, maximal Ca^2+ mobilization response). Prism 4.0 software was used to calculate the EC50 values and the results were expressed as mean ± SEM for at least three independent experiments performed in triplicates.

[3] = Distribution coefficient (LogD) in octanol/PBS; format: physicochemical; conditions: radiolabeled peptide (111In-labeled where the label names no radiometal), shake-flask octanol/PBS, 100 pmol/mL, 15 min shaking at 1500 rpm, γ-counter, mean ± SD, n = 8
Method: The distribution coefficient (LogD) in octanol/PBS was determined by mixing 0.5 mL of the radiolabeled DOTA peptides diluted in PBS (100 pmol/mL) and 0.5 mL octanol in a 1.5 mL microcentrifuge tube (n = 8). After shaking for 15 min (MS3 Basic, IKA, Staufen, Germany) at 1500 rpm and a waiting time of 10 min to ensure appropriate separation of the two phases, 100 µL aliquots of each phase were pipetted into 4.5 mL tubes. The tubes were measured using a γ-counter (2480 Wizard2 3″, PerkinElmer Life Sciences and Analytical Instruments, formerly Wallac Oy, Turku, Finland) and the LogD value was determined using following equation: LogD=Log(cpmoctanol phase/cpmPBS phase)

[4] = Binding to serum proteins (incubation in human serum, Sephadex G-50 size exclusion chromatography); format: in vitro ADME; conditions: 37 °C; for Binding to Serum Proteins (%): 500 pmol/mL
Method: Protein binding was determined by incubation of the radiolabeled peptides in human serum at 37 °C (500 pmol/mL, n = 2). For the time points of 1, 4, and 24 h after incubation, samples of 25 µL were subjected to Sephadex G-50 size exclusion chromatography (GE Healthcare Illustra, Little Chalfont, UK). The column and the eluate were measured using the γ-counter and the percentage of protein binding was calculated.

[5] = In vitro stability in human serum (intact radiopeptide by radio-HPLC); format: in vitro ADME; conditions: fresh human serum, 37 °C, n = 2; for Intact Radiopeptide in Human Serum (%): 1000 pmol/mL
Method: (§2) In vitro stability studies were performed in human serum (n = 2). The radiolabeled peptides (1000 pmol/mL) were incubated at 37 °C and a sample of 100 μL was taken at 1, 4, and 24 h after incubation. After the precipitation of proteins with ACN at 1:1.5 (v/v), centrifugation (14,000 rpm, 2 min, centrifuge 5424, Eppendorf AG, Germany) and dilution with water at 1:1 (v/v), an aliquot of 100 μL of this solution was analyzed by HPLC. Radioligand breakdown was monitored and the percentage of intact radiopeptide was calculated using Chromeleon Dionex Software (Version 7.2.9.11323). Additionally, the radiolabeled peptides (1000 pmol/mL) were incubated in PBS (n = 1) at room temperature to confirm the complex stability as a control.

Complex stability in PBS = format: physicochemical; conditions: 1000 pmol/mL in PBS, room temperature, 4 h after incubation, n = 1
Method: as §2

[6] = radiolabeled peptide (111In where no radiometal named), 24 h after incubation, Sephadex G-50, γ-counter, n = 2
[7] = radiolabeled peptide (111In where no radiometal named), 24 h after incubation

SMILES | IC50 (human CCK2R [1]) [nM] | EC50 (human CCK2R [2]) [nM] | LogD [3] | Binding to Serum Proteins (%) [4, 6] [%] | Intact Radiopeptide in Human Serum (%) [5, 7] [%] | further results
CCCC[C@@H](C(=O)N[C@@H](CC(=O)O)C(=O)N[C@@H](Cc1cccc2ccccc12)C(=O)NC)N(C)C(=O)[C@H](Cc1c[nH]c2ccccc12)NC(=O)CNC(=O)[C@H](Cc1ccc(O)cc1)NC(=O)[C@H](C)NC(=O)[C@@H](CCC(=O)O)NC(=O)CN1CCN(CC(=O)O)CCN(CC(=O)O)CCN(CC(=O)O)CC1 [DOTA-MGS5[NHCH3]] | 13.2 ± 1.5 | 41 ± 14.7 | – | – | – | –
CCCC[C@@H](C(=O)N[C@@H](CC(=O)O)C(=O)N(C)[C@@H](Cc1cccc2ccccc12)C(N)=O)N(C)C(=O)[C@H](Cc1c[nH]c2ccccc12)NC(=O)CNC(=O)[C@H](Cc1ccc(O)cc1)NC(=O)[C@H](C)NC(=O)[C@@H](CCC(=O)O)NC(=O)CN1CCN(CC(=O)O)CCN(CC(=O)O)CCN(CC(=O)O)CC1 [DOTA-[(N-Me)1Nal^8]MGS5] [listing 1 of 2 here] | 2.7 ± 0.3 | 63.4 ± 19.9 | – | – | – | –
CCCC[C@@H](C(=O)N[C@@H](CC(=O)O)C(=O)N(C)[C@@H](Cc1cccc2ccccc12)C(N)=O)N(C)C(=O)[C@H](Cc1c[nH]c2ccccc12)NC(=O)CNC(=O)[C@H](Cc1ccc(O)cc1)NC(=O)[C@H](C)NC(=O)[C@@H](CCC(=O)O)NC(=O)CN1CCN(CC(=O)O)CCN(CC(=O)O)CCN(CC(=O)O)CC1 [DOTA-[(N-Me)1Nal^8]MGS5] [listing 2 of 2 here] | – | – | −2.4 ± 0.3 | 39.8 ± 4.2 | 99.6 ± 0.1 | –
CCCC[C@@H](C(=O)N[C@@H](CC(=O)O)C(=O)N[C@@H](Cc1cccc2ccccc12)C(N)=O)N(C)C(=O)[C@H](Cc1c[nH]c2ccccc12)NC(=O)CNC(=O)[C@H](Cc1ccc(O)cc1)NC(=O)[C@H](C)NC(=O)[C@@H](CCCCN)NC(=O)CN1CCN(CC(=O)O)CCN(CC(=O)O)CCN(CC(=O)O)CC1 [DOTA-[DLys^1]MGS5] ({DOTA}-[dK]AYGW[NMeNle]D[1Nal]-NH2) [listing 1 of 2 here] | 0.9 ± 0.8 | 43.5 ± 14.1 | – | – | – | –
CCCC[C@@H](C(=O)N[C@@H](CC(=O)O)C(=O)N[C@@H](Cc1cccc2ccccc12)C(N)=O)N(C)C(=O)[C@H](Cc1c[nH]c2ccccc12)NC(=O)CNC(=O)[C@H](Cc1ccc(O)cc1)NC(=O)[C@H](C)NC(=O)[C@@H](CCCCN)NC(=O)CN1CCN(CC(=O)O)CCN(CC(=O)O)CCN(CC(=O)O)CC1 [DOTA-[DLys^1]MGS5] ({DOTA}-[dK]AYGW[NMeNle]D[1Nal]-NH2) [listing 2 of 2 here] | – | – | −1.3 ± 0.1 | 27.8 ± 0.4 | 98.1 ± 1.1 | –
CCCC[C@@H](C(=O)N[C@@H](CC(=O)O)C(=O)N[C@@H](Cc1ccccc1)C(N)=O)N(C)C(=O)[C@H](Cc1c[nH]c2ccccc12)NC(=O)CNC(=O)[C@H](Cc1ccc(O)cc1)NC(=O)[C@H](C)NC(=O)[C@@H](CCC(=O)O)NC(=O)CN1CCN(CC(=O)O)CCN(CC(=O)O)CCN(CC(=O)O)CC1 [[^111In]In-DOTA-[Phe^8]MGS5, metal not drawn] ({DOTA}-[dE]AYGW[NMeNle]DF-NH2) | – | – | – | – | – | LogD ([3]; read-out: LogD): -3.19 ± 0.06; fraction unbound at 1 h, 500 pmol/mL ([4]; human, radiolabeled peptide, 1 h after incubation, Sephadex G-50, n = 2): 0.919; fraction unbound at 4 h, 500 pmol/mL ([4]; human, radiolabeled peptide, 4 h after incubation, Sephadex G-50, n = 2): 0.882; fraction unbound at 24 h, 500 pmol/mL [4, 6]: 0.798; remaining at 1 h, 1000 pmol/mL ([5]; human, radiolabeled peptide, 1 h after incubation): 99.5 ± 0.7%; remaining at 4 h, 1000 pmol/mL ([5]; human, radiolabeled peptide, 4 h after incubation): 92.5 ± 0.7%; remaining at 24 h, 1000 pmol/mL [5, 7]: 54 ± 0.8%
CCCC[C@@H](C(=O)N[C@@H](CC(=O)O)C(=O)N(C)[C@@H](Cc1cccc2ccccc12)C(N)=O)N(C)C(=O)[C@H](Cc1c[nH]c2ccccc12)NC(=O)CNC(=O)[C@H](Cc1ccc(O)cc1)NC(=O)[C@H](C)NC(=O)[C@@H](CCC(=O)O)NC(=O)CN1CCN(CC(=O)O)CCN(CC(=O)O)CCN(CC(=O)O)CC1 [[^177Lu]Lu-DOTA-[(N-Me)1Nal^8]MGS5] [metal not drawn] | – | – | – | – | – | Stability of the DOTA-complex in PBS (Complex stability in PBS): 99%

Continued, in another order:

IC50 (human CCK2R [1]) [nM] | EC50 (human CCK2R [2]) [nM] | LogD [3] | Binding to Serum Proteins (%) [4, 6] [%] | Intact Radiopeptide in Human Serum (%) [5, 7] [%] | SMILES | further results
1.7 ± 0.1 | 12.8 ± 2.4 | – | – | – | CCCC[C@@H](C(=O)N[C@@H](CC(=O)O)C(=O)N[C@@H](Cc1ccc2ccccc2c1)C(N)=O)N(C)C(=O)[C@H](Cc1c[nH]c2ccccc12)NC(=O)CNC(=O)[C@H](Cc1ccc(O)cc1)NC(=O)[C@H](C)NC(=O)[C@@H](CCC(=O)O)NC(=O)CN1CCN(CC(=O)O)CCN(CC(=O)O)CCN(CC(=O)O)CC1 [DOTA-[2Nal^8]MGS5] | –
0.7 ± 0.1 | 6.3 ± 3.6 | – | – | – | CCCC[C@@H](C(=O)N[C@@H](CC(=O)O)C(=O)N[C@@H](Cc1ccccc1)C(N)=O)N(C)C(=O)[C@H](Cc1c[nH]c2ccccc12)NC(=O)CNC(=O)[C@H](Cc1ccc(O)cc1)NC(=O)[C@H](C)NC(=O)[C@@H](CCC(=O)O)NC(=O)CN1CCN(CC(=O)O)CCN(CC(=O)O)CCN(CC(=O)O)CC1 [DOTA-[Phe^8]MGS5] ({DOTA}-[dE]AYGW[NMeNle]DF-NH2) [listing 1 of 2 here] | –
– | – | −3.2 ± 0.1 | 20.2 ± 1.6 | 54.0 ± 0.8 | CCCC[C@@H](C(=O)N[C@@H](CC(=O)O)C(=O)N[C@@H](Cc1ccccc1)C(N)=O)N(C)C(=O)[C@H](Cc1c[nH]c2ccccc12)NC(=O)CNC(=O)[C@H](Cc1ccc(O)cc1)NC(=O)[C@H](C)NC(=O)[C@@H](CCC(=O)O)NC(=O)CN1CCN(CC(=O)O)CCN(CC(=O)O)CCN(CC(=O)O)CC1 [DOTA-[Phe^8]MGS5] ({DOTA}-[dE]AYGW[NMeNle]DF-NH2) [listing 2 of 2 here] | –
